Key:
[1] = tested on: biofilms grown on saliva-coated HA surfaces; experiment: Live/Dead BacLight staining with confocal laser scanning microscopy of treated biofilms; assay type: cell-based, human salivary bacteria; conditions: 66 h-old biofilms; KSL 200 μg/ml, Bzl 0.001%, CHX 0.12%
Protocol: (A) Effect of KSL on intact versus disrupted 45 h biofilms formed on saliva-coated HA disks by salivary bacteria using the in vitro plaque assay. A Mann-Whitney test was used for comparison of log reductions in CFU between the experimental groups (KSL-treated intact or disrupted biofilms) with the control groups (dH2O-treated intact or disrupted biofilms). The single asterisk represents a statistically significant difference between KSL and dH2O-treated intact biofilms (p<0.05). Likewise, double asterisks represent a statistically significant difference between KSL and dH2O-treated disrupted biofilms (p<0.01). […] (B) Effect of benzalkonium chloride in promoting the bactericidal activity of KSL against 66 h-old intact oral biofilms formed on saliva-coated HA disks using the in vitro plaque system. A Kruskal-Wallis test was used to compare log reductions in CFU among various treatment groups including the control group (dH2O-treated). The single asterisk represents a statistically significant difference between the combined treatment of KSL and benzalkonium chloride (Bzl) and dH2O (p<0.001), KSL (p<0.01), or Bzl (p<0.01)-treated intact biofilms. Double asterisks represent a statistically significant difference between CHX and dH2O (p<0.001) or Bzl (P<0.05)-treated intact biofilms. […] No significant difference in viability counts was observed between CHX-treated versus the combined use of KSL and Bzl. For (A) and (B), the data represent the determinations of one of three separate experiments, each performed in quadruplicate. Bars represent standard deviations. (C) Confocal images of control and treated biofilms grown on saliva-coated HA surfaces. Live/Dead BacLight™ Viability kit (Molecular Probes, Eugene, Oreg.) was used to assess the viability of biofilm cells exposed to different treatments. […] An excitation wavelength of 488 nm was used and the fluorescence light emitted was collected by two separate emission filters, 500-530 nm (SYTO 9, live), and 650-710 nm (propidium iodide, dead). […]

[2] = tested on: oral biofilms formed on saliva-coated HA disks by salivary bacteria; experiment: In vitro plaque assay, viable counts of oral biofilms on saliva-coated HA disks; assay type: cell-based, human salivary bacteria
Text: In conjunction with the dual flow cell system, a modification of an in vitro plaque model of biofilm formation described by Guggenheim et al. (Guggenheim et al., 2001) was used to determine the effects of tested antimicrobials and other agents on developed oral biofilms (see Appendix I for details). HA disks (Clarkson, south Williamsport, Pa.) were employed as substrates for salivary bacteria to form biofilms.
To determine the inhibitory activity of KSL on developed oral biofilms, disks containing 45 h-old biofilms were transferred to wells containing aqueous KSL (200 μg/ml; 1 ml/well). Following 30 min exposure at 37° C., disks were rinsed with 3×1 ml of saline and transferred to sterile 15 ml polypropylene tubes containing 1 ml PBS. Biofilm cells adherent to surfaces (after treatment) were recovered by sonicating for 2 min at 5 watts with a Microson ultrasonic cell disrupter equipped with a cup horn (Misonix Inc., Farmingdale, N.Y.). Settings including the time interval used in the sonication were predetermined empirically to yield maximal recovery of adherent biofilm cells.
The effect of KSL on disrupted biofilms was assessed by recovering biofilm cells from HA disks (45 h-old biofilms) through sonication as described above. The detached biofilm cells (in sterile dH2O) were mixed with an equal volume of aqueous KSL to obtain a final peptide concentration of 200 μg/ml, and the reaction mixtures incubated at 37° C. for 30 min. The interactions of KSL and suspended biofilm cells were terminated by washing in PBS.
To determine the effect of the surface-active agent (benzalkonium chloride; Sigma, St. Louis, Mo.) in promoting the killing of intact biofilms by KSL, 66 h-old oral biofilms were treated with KSL (200 μg/ml), benzalkonium chloride (0.001%), or a combination of the two agents, followed by viable counts determinations and confocal laser scanning microscopy of treated samples.
Viable counts of biofilm cells derived from treated disks or disrupted biofilms were determined by spiral plating serially diluted samples onto blood agar plates. Distilled water or 0.12% aqueous chlorhexidine digluconate (Sigma) was used as the negative or positive control, respectively. The 45 h-old biofilms were exposed to chlorhexidine for 1 min, and to water for 30 min at 37° C.
In this assay, HA disks (Clarkson Chromatography Products, Inc., South Williamsport, Pa.) were used as surfaces on which plaque formation can occur. Before use, sterile HA disks were conditioned in the wells of a 24-well microtiter plate (Becton Dickinson, Franklin Lakes, N.J.) containing 50% sterile saliva by incubating at room temperature for a minimum of two hours on a rotating platform at 95 rpm. The saliva was removed and each well inoculated with isolated salivary bacteria at a bacterial cell concentration of 1.0×10^7 cells/ml in sterile 50% whole saliva. After two hours of incubation (with rotation) at 37° C. to allow the bacteria to adhere to surfaces, unattached bacteria were removed and replaced with supplemented saliva-based medium. The plates were incubated with rotation at 37° C. for 45 h (with medium replaced three times), or 66 h (with medium replaced five times) in a CO2 incubator prior to treatments, and the recovery of biofilm cells from treated or untreated disks.
In these studies, KSL or KSL-W was used at 200 μg/ml, whereas Bzl and CPC were used at 0.001% and 0.0025%, respectively. […]

MRSA WRAMC #9 = assay type: cell-based, Staphylococcus aureus
Text: (§1) As shown in the table below, many drug-resistant pathogens including multidrug-resistant Acinetobacter baumannii (clinical isolates) were susceptible to the bactericidal activity of the newly developed antimicrobial peptides. […] This is shown by their lower MIC and MBC against a number of antibiotic-resistant bacteria including methicillin-resistant Staphylococcus aureus, vancomycin-resistant Enterococci, and multidrug-resistant Acinetobacter baumannii. Many of these resistant strains are involved in nosocomial infections, which affect the immunocompromised and the elderly individuals with weakened defenses. The tests were done in a broth microdilution assay as described in our earlier publication (Concannon et al., 2003).

MRSA ATCC #43300 = assay type: cell-based, Staphylococcus aureus
Text: as §1

MRSA VVRAMC #1 = assay type: cell-based, Staphylococcus aureus
Text: as §1

MRSA WRAMC #12 = assay type: cell-based, Staphylococcus aureus
Text: as §1

MRSA ATCC #33591 = assay type: cell-based, Staphylococcus aureus
Text: as §1

MRSA VVRAMC #10 = assay type: cell-based, Staphylococcus aureus
Text: as §1

VRE VVRAMC #7 = assay type: cell-based, Enterococci
Text: as §1

VRE WRAMC #6 = assay type: cell-based, Enterococci
Text: as §1

VRE WRAMC #3 = assay type: cell-based, Enterococci
Text: as §1

VRE ATCC #51299 = assay type: cell-based, Enterococci
Text: as §1

Actinomyces naeslundii = experiment: Adherence inhibition of tritiated A. naeslundii to saliva-coated HA disks; assay type: cell-based; conditions: disks pretreated with KSL-W 1 mg/ml; 2 hour incubation at 37° C.
Protocol: In these studies, saliva-coated HA disks pre-treated with salivary proteins, KSL-W (1 mg/ml), or chlorhexidine (1 mg/ml), were used as colonizable surfaces to test the adherence of tritiated A. naeslundii, an early colonizer that is involved in dental plaque formation. In these experiments, labeled A. naeslundii ([…] cells per ml) were incubated for 2 h with HA disks that were pre-treated with different agents.

A. baumannii WRAMC #8 = assay type: cell-based, Acinetobacter baumannii
Text: as §1

A. baumannii WRAMC #14 = assay type: cell-based, Acinetobacter baumannii
Text: as §1

A. baumannii WRAMC #16 = assay type: cell-based, Acinetobacter baumannii
Text: as §1

A. baumannii ATCC #19606 = assay type: cell-based, Acinetobacter baumannii
Text: as §1

A. baumannii WRAMC #15 = assay type: cell-based, Acinetobacter baumannii
Text: as §1

A. baumannii WRAMC #17 = assay type: cell-based, Acinetobacter baumannii
Text: as §1

A. baumannii WRAMC #19 = assay type: cell-based, Acinetobacter baumannii
Text: as §1

A. baumannii WRAMC #13 = assay type: cell-based, Acinetobacter baumannii
Text: as §1

A. baumannii WRAMC #11 = assay type: cell-based, Acinetobacter baumannii
Text: as §1

A. baumannii WRAMC #18 = assay type: cell-based, Acinetobacter baumannii
Text: as §1

A. baumannii WRAMC #5 = assay type: cell-based, Acinetobacter baumannii
Text: as §1

A. baumannii WRAMC #4 = assay type: cell-based, Acinetobacter baumannii
Text: as §1

A. baumannii WRAMC #2 = assay type: cell-based, Acinetobacter baumannii
Text: as §1

[H]/N=C(\N/C(=N/[H])NCCCCCCNC(=N)NC(=N)Nc1ccc(Cl)cc1)Nc1ccc(Cl)cc1 [chlorhexidine, chlorhexidine digluconate, reference compound]
viability of biofilm cells by live/dead staining [1]: significantly reduced the viability of biofilm cells
reduction of viable counts, intact biofilms ([2]; intact 45-h-old biofilms, 0.12% chlorhexidine, 1 min): larger reduction of viable counts

H-KKVVFWVKFK-NH2 [KSL-W, NH2-Lys-Lys-Val-Val-Phe-Trp-Val-Lys-Phe-Lys-CONH2]
MBC (MRSA WRAMC #9): >200 µg/mL
MIC (MRSA WRAMC #9): 200 µg/mL
MBC (MRSA ATCC #43300): 50 µg/mL
MIC (MRSA ATCC #43300): 25 µg/mL
MBC (MRSA VVRAMC #1): 100 µg/mL
MBC (MRSA WRAMC #12): >200 µg/mL
MIC (MRSA WRAMC #12): 200 µg/mL
MBC (MRSA ATCC #33591): 200 µg/mL
MIC (MRSA ATCC #33591): 100 µg/mL
MBC (MRSA VVRAMC #10): 200 µg/mL
MBC (VRE VVRAMC #7): 25 µg/mL
MBC (VRE WRAMC #6): 100 µg/mL
MIC (VRE WRAMC #6): 12.5 µg/mL
MBC (VRE WRAMC #3): 200 µg/mL
MIC (VRE WRAMC #3): 100 µg/mL
MBC (VRE ATCC #51299): 200 µg/mL
MIC (VRE ATCC #51299): 100 µg/mL
adherence of tritiated A. naeslundii to pretreated HA disks (Actinomyces naeslundii): great reduction in the number of bacteria that attached
MBC (A. baumannii WRAMC #8): 25 µg/mL
MBC (A. baumannii WRAMC #14): 50 µg/mL
MIC (A. baumannii WRAMC #14): 25 µg/mL
MBC (A. baumannii WRAMC #16): 50 µg/mL
MBC (A. baumannii ATCC #19606): 100 µg/mL
MBC (A. baumannii WRAMC #15): 50 µg/mL
MBC (A. baumannii WRAMC #17): 25 µg/mL
MBC (A. baumannii WRAMC #19): 100 µg/mL
MIC (A. baumannii WRAMC #19): 50 µg/mL
MBC (A. baumannii WRAMC #13): 50 µg/mL
MBC (A. baumannii WRAMC #11): 25 µg/mL
MBC (A. baumannii WRAMC #18): 25 µg/mL
MIC (A. baumannii WRAMC #18): 12.5 µg/mL
MBC (A. baumannii WRAMC #5): 25 µg/mL
MIC (A. baumannii WRAMC #5): 12.5 µg/mL
MBC (A. baumannii WRAMC #4): 25 µg/mL
MBC (A. baumannii WRAMC #2): 100 µg/mL
MIC (A. baumannii WRAMC #2): 25 µg/mL

benzalkonium chloride [reference compound]
viability of biofilm cells by live/dead staining [1]: less impact on the viability of biofilm cells
effect on viability of intact biofilms compared to water treatment ([2]; 66 h-old oral biofilms, KSL 200 μg/ml, benzalkonium chloride 0.001%): less effect on the viability
